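All cell lines were grown in 96-well plates and treated with compound for 48 hours. At the GI50, growth is halved.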 Activity calls are given as the source filed them. Cut-off read from the data, not from the text of the source: active = GI50 up to about 1.1 µM and inactive = higher.

What all share (assay): inhibition of tumour cell growth, NCI panel, 48 h
The test system of test [1] is COLO 205.
Test [2] deals with M14.
Test [3] has as its system T47D.
The test system of test [4] is Malme-3M.
The subject of test [5] is A498.
Test [6] has as its system 786-0.
The test system of test [7] is IGROV-1.
In test [8] the test system is U-251.
For test [9], the system named is RXF 393.
Test [10] has as its system Hs-578T.
Test [11] relates to OVCAR-5.
The subject of test [12] is HOP-62.
Test [13] has as its system SK-OV-3.
Test [14] concerns MDA-MB-435.
The test system of test [15] is LOX IMVI.
Test [16] relates to HCT-116.
Test [17] relates to HT-29.
Test [18] relates to HL-60.
For test [19], the system named is CAKI-1.
Test [20] deals with BT-549.

As to `CCc1oc2ccccc2c1C(=O)c1cc(Br)c(O)c(Br)c1` [BENZBROMARONE], the GI50 in test [1] is 20.9 µM (inactive); in test [2], 28.9 µM (inactive); in [3], 19.9 µM (inactive); in test [4], 19.1 µM (inactive); in test [5] it was 20.5 µM (inactive); in test [6] it was 29.9 µM (inactive). The GI50 in test [7] is 33.7 µM (inactive); in test [8] it was 17.3 µM (inactive); in test [9], 15.3 µM (inactive); in test [10], 24.5 µM (inactive); in test [11], 21.4 µM (inactive); in test [12], 34.3 µM (inactive). Besides, the GI50 was 37.8 µM (inactive) in [13]; 29.7 µM (inactive) in [14]; 24.7 µM (inactive) in test [15]; 22.4 µM (inactive) in test [16]; 30.3 µM (inactive) in test [17]; 13.6 µM (inactive) in [18]. The GI50 in [19] is 36.1 µM (inactive); in test [20], 28.2 µM (inactive).
With `O=C(O)c1cccc(CC(Br)C(=O)O)c1` (stereo not given), the GI50 in test [1], in test [2], in test [3], in [4], in test [5] and in [6] was > 100 µM (inactive) each time. In addition, the GI50 in test [7], in test [8], in test [9], in [10], in test [11] and in test [12] was > 100 µM (inactive) in each case. For the same compound, the GI50 in test [13], in [14], in test [15], in test [16], in test [17] and in [18] was > 100 µM (inactive) in each case. Further, the GI50 in test [19] and in [20] was > 100 µM (inactive) throughout.
Turning to `CCC12C=CCN3CCC4(c5cc(C(c6ccc(OC)cc6)C6Cc7ccccc7N6)c(OC)cc5N(C)C4C(O)(C(=O)OC)C1O)C32` (stereo not given), the GI50 in test [1] is 8.36 µM (inactive); in test [2] it was 24.2 µM (inactive); in test [3], 2.9 µM (inactive); in test [4] it was 36.6 µM (inactive); in [5], 11.6 µM (inactive); in test [6], 18.7 µM (inactive). Further, the GI50 was 16.9 µM (inactive) in test [7]; 11 µM (inactive) in test [8]; 14.3 µM (inactive) in test [9]; 63.7 µM (inactive) in test [10]; 36.7 µM (inactive) in test [11]; 26.5 µM (inactive) in [12]. The GI50 in test [13] was 29.4 µM (inactive); in test [14], 12.7 µM (inactive); in test [15], 14.1 µM (inactive); in test [16] it was 14.4 µM (inactive); in test [17] it was 18.2 µM (inactive); in [18] it was 1.72 µM (inactive). Further, the GI50 in [19] is 18.7 µM (inactive); in test [20], 19.9 µM (inactive).
In the case of `CCCCC1=C(C(=O)N2CCOCC2)C2(OCCO2)C1=O`, the GI50 in [1] was 17.7 µM (inactive); in test [2] it was 17.8 µM (inactive); in test [3], 33.9 µM (inactive); in test [4], 20.6 µM (inactive); in test [5] it was 27.8 µM (inactive); in test [6], 18.2 µM (inactive). In addition, the GI50 in [7] is 17.9 µM (inactive); in [8] it was 31.3 µM (inactive); in [9], 21.1 µM (inactive); in test [10] it was 31.7 µM (inactive); in [11], 16.9 µM (inactive); in test [12], 23.6 µM (inactive). In addition, the GI50 in test [13] is 62.4 µM (inactive); in test [14], 18.5 µM (inactive); in test [15], 12.8 µM (inactive); in test [16], 18.5 µM (inactive); in [17], 18.8 µM (inactive); in test [18], 30.2 µM (inactive). The results for the GI50 in test [19] and in [20] were 21.9 µM (inactive) and 23 µM (inactive), respectively.
Take `CCCCCCCCCCCCCCCCCCOCC(COCCOCC[N+]1(CCCCCC(=O)[O-])CCCC1)Oc1ncccn1` (stereo not given): the GI50 in test [1] was 1.11 µM (active); in test [2] it was 7.41 µM (inactive); in [3] it was 5.13 µM (inactive); in test [4], 16.7 µM (inactive); in [5] it was 5.94 µM (inactive); in [6] it was 7.23 µM (inactive). The GI50 in test [7] was 0.622 µM (active); in [8], 0.547 µM (active); in test [9], 1.4 µM (inactive); in test [10] it was 13.6 µM (inactive); in test [11], 2.99 µM (inactive); in [12], 1.88 µM (inactive). The GI50 in test [13] was 3.87 µM (inactive); in test [14], 8.79 µM (inactive); in test [15], 2.88 µM (inactive); in test [16], 1.82 µM (inactive); in test [17], 1.73 µM (inactive); in test [18], 0.395 µM (active). In addition, the values for the GI50 in test [19] and in [20] were 9.51 µM (inactive) and 7.29 µM (inactive), respectively.
On to `COC(=O)[C@@H]1COC(=O)N1`, for which the GI50 in [1], in [2], in test [3], in test [4], in test [5] and in [6] was > 100 µM (inactive) each time. Further, the GI50 in test [7], in test [8], in [9], in test [10], in test [11] and in [12] was > 100 µM (inactive) each time. Also, the GI50 in test [13], in test [14], in test [15], in test [16], in [17] and in [18] was > 100 µM (inactive) in each case. The GI50 in [19] and in test [20] was > 100 µM (inactive) each time.
As to `O=C(CC(=O)N1N=C(c2ccccc2)C(/N=N/c2ccc(S(=O)(=O)CCOS(=O)(=O)O)cc2)C1=O)Nc1ccc(Cl)cc1` (stereo not given), the GI50 in test [1] was > 100 µM (inactive); in test [2], 28.1 µM (inactive); in test [3], > 100 µM (inactive); in [4], > 100 µM (inactive); in [5], > 100 µM (inactive); in test [6] it was > 100 µM (inactive). The GI50 in [7] is 8.75 µM (inactive); in test [8], > 100 µM (inactive); in test [9], > 100 µM (inactive); in [10] it was 20.6 µM (inactive); in test [11] it was > 100 µM (inactive); in test [12] it was > 100 µM (inactive). For the same compound, the GI50 was > 100 µM (inactive) in test [13]; > 100 µM (inactive) in test [14]; 84.1 µM (inactive) in test [15]; 85.9 µM (inactive) in test [16]; > 100 µM (inactive) in [17]; > 100 µM (inactive) in test [18]. The GI50 in [19] and in [20] was > 100 µM (inactive) throughout.
As to `Cc1cc2occ(S(=O)(=O)NC(=O)Nc3ccc(Cl)cc3)c(=O)c2c(=O)o1`, the GI50 in test [1], in test [2], in test [3], in test [4], in test [5] and in [6] was > 100 µM (inactive) each time. The GI50 in test [7], in [8], in [9], in test [10], in test [11] and in [12] was > 100 µM (inactive) throughout. Besides, the GI50 in [13], in test [14], in [15], in test [16], in test [17] and in test [18] was > 100 µM (inactive) throughout. In addition, the GI50 in test [19] and in [20] was > 100 µM (inactive) in each case.
Turning to `Cn1c2ccccc2n2c3ncccc3/c(=N/CCCC(=O)O)c(C#N)c12`, the GI50 in [1], in [2], in test [3], in test [4], in test [5] and in test [6] was > 100 µM (inactive) throughout. In addition, the GI50 in [7], in [8], in test [9], in [10], in [11] and in test [12] was > 100 µM (inactive) in each case. Also, the GI50 in [13], in test [14], in test [15], in test [16], in [17] and in [18] was > 100 µM (inactive) each time. Also, the GI50 in test [19] and in test [20] was > 100 µM (inactive) in each case.
Take `COC12C(COC(=O)NCCO)C3=C(C(=O)C(C)=C(N)C3=O)N1CC1NC12` (stereo not given): the GI50 in test [1] is 37.7 µM (inactive); in test [2], 11.5 µM (inactive); in test [3] it was 60.3 µM (inactive); in test [4], 21.1 µM (inactive); in [5], 60.7 µM (inactive); in [6], 20.9 µM (inactive). Besides, the GI50 is 29.2 µM (inactive) in test [7]; 4.05 µM (inactive) in test [8]; 24 µM (inactive) in [9]; 198 µM (inactive) in test [10]; 28.7 µM (inactive) in [11]; 6.47 µM (inactive) in [12]. Also, the GI50 was 24.4 µM (inactive) in test [13]; 140 µM (inactive) in test [14]; 13.8 µM (inactive) in test [15]; 18.9 µM (inactive) in test [16]; 29.2 µM (inactive) in [17]; 58.9 µM (inactive) in test [18]. The figures for the GI50 in [19] and in test [20] were 2.77 µM (inactive) and 54.5 µM (inactive), respectively.

Source of the values: ChEMBL document CHEMBL1201862, “PubChem BioAssay data set” (2004).
